# Measurements from patent US11180657B2, “Polysulfonated fluorescence dyes” (ATTO-TEC GmbH, priority 2017, dated 2021).
# Marks after values point to notes of the source that are not given here.
# Key:
# [1] = Absorption maximum of the dye; format: physicochemical
# From the text: (§1) Examples of the compounds according to the invention are listed in Tables 2-6, where the structures as well as the absorption and fluorescence maxima are indicated. The spectra of selected compounds are shown FIGS. 5-18.
# [2] = Fluorescence maximum of the dye; format: physicochemical
# From the text: as §1
Structure (SMILES),λabs ([1]; solvent PBS pH 7.4),λfl ([2]; solvent PBS pH 7.4),λabs ([1]; solvent ethanol),λfl ([2]; solvent ethanol)
Cc1cc(=O)[nH]c2cc(NCS(=O)(=O)O)ccc12 [Compound 105],349 nm,413 nm,355 nm,406 nm
Cc1cc(=O)n(CC(=O)O)c2cc(NCS(=O)(=O)O)ccc12 [Compound 106],350^b nm,410^b nm,–,–
Cc1cc(=O)n(CC(=O)O)c2cc(NCc3ccc(S(=O)(=O)O)cc3S(=O)(=O)O)ccc12 [Compound 107],351^b nm,413^b nm,–,–
Cc1cc(=O)n(CC(=O)O)c2cc(NCS(=O)(=O)O)c(S(=O)(=O)O)cc12 [Compound 108],348^b nm,411^b nm,–,–
Cc1c(CC(=O)O)c(=O)oc2cc(NCS(=O)(=O)O)ccc12 [Compound 110],354^b nm,353^b nm,–,–
Cc1c(CC(=O)O)c(=O)oc2cc(Nc3nc(Cl)nc(NCCS(=O)(=O)O)n3)ccc12 [Compound 112],338^b nm,416^b nm,–,–
Cc1cc(=O)n(CC(=O)O)c2cc(Nc3nc(Cl)nc(NCCS(=O)(=O)O)n3)ccc12 [Compound 114],338^b nm,385^b nm,–,–
Cc1cc(=O)n(CC(=O)O)c2cc(Nc3nc(NCCS(=O)(=O)O)nc(NCCS(=O)(=O)O)n3)ccc12 [Compound 115],335^b nm,383^b nm,–,–

# Results, then the compound that gave them:
λabs ([1]; solvent PBS pH 7.4),λfl ([2]; solvent PBS pH 7.4),λabs ([1]; solvent ethanol),λfl ([2]; solvent ethanol),Structure (SMILES)
682^b nm,700^b nm,–,–,CC1(C)C=C(CS(=O)(=O)O)c2cc3c(cc2=[N+]1CCCC(=O)O)Oc1cc2c(cc1N=3)CCCN2Cc1ccc(S(=O)(=O)O)cc1S(=O)(=O)O [Compound 99]
701^b nm,718^b nm,–,–,CC1(C)C=C(CS(=O)(=O)O)c2cc3c(cc2N1Cc1ccc(S(=O)(=O)O)cc1S(=O)(=O)O)Oc1cc2c(cc1=N3)C(CS(=O)(=O)O)=CC(C)(C)[N+]=2CCCC(=O)O [Compound 100]
647^b nm,678^b nm,–,–,CC1(C)CC(CS(=O)(=O)O)c2cc3c(cc2=[N+]1Cc1ccc(S(=O)(=O)O)cc1S(=O)(=O)O)Oc1cc(N)c2cc(S(=O)(=O)O)ccc2c1N=3 (stereo not shown) [Compound 101]
721^b nm,742^b nm,–,–,CC1(C)c2cc3c(cc2N=c2cc4c(cc21)=[N+](CCCC(=O)O)C(C)(C)CC4CS(=O)(=O)O)CCCN3Cc1ccc(S(=O)(=O)O)cc1S(=O)(=O)O (stereo not shown) [Compound 102]
740^b nm,761^b nm,–,–,CC1(C)c2cc3c(cc2N=c2cc4c(cc21)=[N+](CCCC(=O)O)C(C)(C)C=C4CS(=O)(=O)O)CCCN3Cc1ccc(S(=O)(=O)O)cc1S(=O)(=O)O [Compound 103]
758^b nm,778^b nm,–,–,CC1(C)c2cc3c(cc2N=c2cc4c(cc21)=[N+](CCCC(=O)O)C(C)(C)C=C4CS(=O)(=O)O)C(CS(=O)(=O)O)=CC(C)(C)N3Cc1ccc(S(=O)(=O)O)cc1S(=O)(=O)O [Compound 104]
349^b nm,418^b nm,–,–,Cc1cc(=O)n(CC(=O)O)c2cc(NCc3ccc(S(=O)(=O)O)cc3S(=O)(=O)O)c(S(=O)(=O)O)cc12 [Compound 109]
348^b nm,449^b nm,–,–,Cc1c(CC(=O)O)c(=O)oc2cc(NCc3ccc(S(=O)(=O)O)cc3S(=O)(=O)O)c(S(=O)(=O)O)cc12 [Compound 111]
